Source: ChEMBL document CHEMBL1671627, “Increasing trends in antimicrobial resistance among clinically important anaerobes and Bacteroides fragilis isolates causing nosocomial infections: emerging resistance to carbapenems” (2008)
Values after ≈ are worked out from the molar mass of the structure shown.

How the values were obtained:
Bacteroides uniformis [1] = test: Antibacterial activity against beta-lactamase producing Bacteroides uniformis by CLSI agar dilution method; format: functional
[2] = test system: Bacteroides thetaiotaomicron; test: Antibacterial activity against beta-lactamase producing Bacteroides thetaiotaomicron by CLSI agar dilution method; format: functional
Fusobacterium varium [3] = test: Antibacterial activity against Fusobacterium varium assessed as resistant isolates by CLSI agar dilution method; format: functional
Prevotella bivia [4] = test: Antibacterial activity against Prevotella bivia by CLSI agar dilution method; format: functional
Finegoldia magna [5] = test: Antibacterial activity against beta-lactamase producing Finegoldia magna by CLSI agar dilution method; format: functional
Fusobacterium varium [6] = test: Antibacterial activity against Fusobacterium varium by CLSI agar dilution method; format: functional
Clostridium tertium [7] = test: Antibacterial activity against beta-lactamase producing Clostridium tertium assessed as susceptible isolates by CLSI agar dilution method; format: functional
Prevotella buccae [8] = test: Antibacterial activity against Prevotella buccae by CLSI agar dilution method; format: functional; settings: Segatella buccae
[9] = test system: Peptoniphilus asaccharolyticus; test: Antibacterial activity against beta-lactamase producing Peptoniphilus asaccharolyticus by CLSI agar dilution method; format: functional
Fusobacterium mortiferum [10] = test: Antibacterial activity against Fusobacterium mortiferum assessed as resistant isolates by CLSI agar dilution method; format: functional
Fusobacterium mortiferum [11] = test: Antibacterial activity against Fusobacterium mortiferum assessed as susceptible isolates by CLSI agar dilution method; format: functional
[12] = test system: Clostridium paraputrificum; test: Antibacterial activity against beta-lactamase producing Clostridium paraputrificum assessed as susceptible isolates by CLSI agar dilution method; format: functional
Parvimonas micra [13] = test: Antibacterial activity against beta-lactamase producing Micromonas micros assessed as susceptible isolates by CLSI agar dilution method; format: functional
Bacteroides caccae [14] = test: Antibacterial activity against beta-lactamase producing Bacteroides caccae assessed as susceptible isolates by CLSI agar dilution method; format: functional
[15] = test system: Peptostreptococcus anaerobius; test: Antibacterial activity against beta-lactamase producing Peptostreptococcus anaerobius by CLSI agar dilution method; format: functional
Prevotella intermedia [16] = test: Antibacterial activity against Prevotella intermedia by CLSI agar dilution method; format: functional
[17] = test system: Clostridium paraputrificum; test: Antibacterial activity against beta-lactamase producing Clostridium paraputrificum assessed as resistant isolates by CLSI agar dilution method; format: functional
Phocaeicola vulgatus [18] = test: Antibacterial activity against beta-lactamase producing Bacteroides vulgatus assessed as susceptible isolates by CLSI agar dilution method; format: functional
Prevotella bivia [19] = test: Antibacterial activity against Prevotella bivia assessed as susceptible isolates by CLSI agar dilution method; format: functional
Bacteroides fragilis [20] = test: Antibacterial activity against Bacteroides fragilis assessed as susceptible isolates by CLSI agar dilution method; format: functional
Finegoldia magna [21] = test: Antibacterial activity against beta-lactamase producing Finegoldia magna assessed as susceptible isolates by CLSI agar dilution method; format: functional
[22] = test system: Peptostreptococcus anaerobius; test: Antibacterial activity against beta-lactamase producing Peptostreptococcus anaerobius assessed as susceptible isolates by CLSI agar dilution method; format: functional
Prevotella buccae [23] = test: Antibacterial activity against Prevotella buccae assessed as resistant isolates by CLSI agar dilution method; format: functional, Segatella buccae
[24] = test system: Fusobacterium necrophorum; test: Antibacterial activity against Fusobacterium necrophorum assessed as resistant isolates by CLSI agar dilution method; format: functional
Clostridium septicum [25] = test: Antibacterial activity against beta-lactamase producing Clostridium septicum assessed as resistant isolates by CLSI agar dilution method; format: functional
Veillonella parvula = test: Antibacterial activity against Veillonella parvula by CLSI agar dilution method; format: functional
Phocaeicola vulgatus [26] = test: Antibacterial activity against beta-lactamase producing Bacteroides vulgatus by CLSI agar dilution method; format: functional
Clostridium septicum [27] = test: Antibacterial activity against beta-lactamase producing Clostridium septicum assessed as susceptible isolates by CLSI agar dilution method; format: functional
[28] = test system: Clostridium paraputrificum; test: Antibacterial activity against beta-lactamase producing Clostridium paraputrificum by CLSI agar dilution method; format: functional
[29] = test system: Fusobacterium necrophorum; test: Antibacterial activity against Fusobacterium necrophorum assessed as susceptible isolates by CLSI agar dilution method; format: functional
Prevotella intermedia [30] = test: Antibacterial activity against Prevotella intermedia assessed as resistant isolates by CLSI agar dilution method; format: functional
[31] = test system: Peptoniphilus asaccharolyticus; test: Antibacterial activity against beta-lactamase producing Peptoniphilus asaccharolyticus assessed as susceptible isolates by CLSI agar dilution method; format: functional
Clostridium septicum [32] = test: Antibacterial activity against beta-lactamase producing Clostridium septicum by CLSI agar dilution method; format: functional
Bacteroides caccae [33] = test: Antibacterial activity against beta-lactamase producing Bacteroides caccae by CLSI agar dilution method; format: functional
[34] = test system: Fusobacterium necrophorum; test: Antibacterial activity against Fusobacterium necrophorum by CLSI agar dilution method; format: functional
Bacteroides fragilis [35] = test: Antibacterial activity against Bacteroides fragilis assessed as resistant isolates by CLSI agar dilution method; format: functional
Bacteroides uniformis [36] = test: Antibacterial activity against beta-lactamase producing Bacteroides uniformis assessed as susceptible isolates by CLSI agar dilution method; format: functional
Parvimonas micra [37] = test: Antibacterial activity against beta-lactamase producing Micromonas micros by CLSI agar dilution method; format: functional
Fusobacterium nucleatum [38] = test: Antibacterial activity against Fusobacterium nucleatum assessed as resistant isolates by CLSI agar dilution method; format: functional
Prevotella intermedia [39] = test: Antibacterial activity against Prevotella intermedia assessed as susceptible isolates by CLSI agar dilution method; format: functional
Finegoldia magna [40] = test: Antibacterial activity against beta-lactamase producing Finegoldia magna assessed as resistant isolates by CLSI agar dilution method; format: functional
Fusobacterium nucleatum [41] = test: Antibacterial activity against Fusobacterium nucleatum assessed as susceptible isolates by CLSI agar dilution method; format: functional
[42] = test system: Prevotella melaninogenica; test: Antibacterial activity against Prevotella melaninogenica assessed as susceptible isolates by CLSI agar dilution method; format: functional
[43] = test system: Prevotella melaninogenica; test: Antibacterial activity against Prevotella melaninogenica by CLSI agar dilution method; format: functional
Bacteroides caccae [44] = test: Antibacterial activity against beta-lactamase producing Bacteroides caccae assessed as resistant isolates by CLSI agar dilution method; format: functional
[45] = test system: Peptostreptococcus anaerobius; test: Antibacterial activity against beta-lactamase producing Peptostreptococcus anaerobius assessed as resistant isolates by CLSI agar dilution method; format: functional
Prevotella bivia [46] = test: Antibacterial activity against Prevotella bivia assessed as resistant isolates by CLSI agar dilution method; format: functional
Clostridium perfringens = test: microbe, parasite or virus in culture; format: functional
[47] = test system: Prevotella melaninogenica; test: Antibacterial activity against Prevotella melaninogenica assessed as resistant isolates by CLSI agar dilution method; format: functional
[48] = test system: Bacteroides thetaiotaomicron; test: Antibacterial activity against beta-lactamase producing Bacteroides thetaiotaomicron assessed as susceptible isolates by CLSI agar dilution method; format: functional
Parvimonas micra [49] = test: Antibacterial activity against beta-lactamase producing Micromonas micros assessed as resistant isolates by CLSI agar dilution method; format: functional
Clostridium tertium [50] = test: Antibacterial activity against beta-lactamase producing Clostridium tertium assessed as resistant isolates by CLSI agar dilution method; format: functional
Phocaeicola vulgatus [51] = test: Antibacterial activity against beta-lactamase producing Bacteroides vulgatus assessed as resistant isolates by CLSI agar dilution method; format: functional
Clostridium tertium [52] = test: Antibacterial activity against beta-lactamase producing Clostridium tertium by CLSI agar dilution method; format: functional
Fusobacterium mortiferum [53] = test: Antibacterial activity against Fusobacterium mortiferum by CLSI agar dilution method; format: functional
Bacteroides fragilis [54] = test: Antibacterial activity against Bacteroides fragilis by CLSI agar dilution method; format: functional
Bacteroides uniformis [55] = test: Antibacterial activity against beta-lactamase producing Bacteroides uniformis assessed as resistant isolates by CLSI agar dilution method; format: functional
Fusobacterium nucleatum [56] = test: Antibacterial activity against Fusobacterium nucleatum by CLSI agar dilution method; format: functional
[57] = test system: Peptoniphilus asaccharolyticus; test: Antibacterial activity against beta-lactamase producing Peptoniphilus asaccharolyticus assessed as resistant isolates by CLSI agar dilution method; format: functional
Prevotella buccae [58] = test: Antibacterial activity against Prevotella buccae assessed as susceptible isolates by CLSI agar dilution method; format: functional, Segatella buccae
Fusobacterium varium [59] = test: Antibacterial activity against Fusobacterium varium assessed as susceptible isolates by CLSI agar dilution method; format: functional

SMILES: CCC[C@@H]1C[C@@H](C(=O)N[C@@H]([C@H]2O[C@H](SC)[C@H](O)[C@@H](O)[C@H]2O)[C@H](C)Cl)N(C)C1 [CLINDAMYCIN]
- MIC50 (Bacteroides uniformis [1]): 2 µg/mL (≈ 4.71 µM)
- MIC90 (Bacteroides uniformis [1]): > 128 µg/mL
- MIC50 [2]: 4 µg/mL (≈ 9.41 µM)
- MIC90 [2]: > 128 µg/mL
- Activity (Fusobacterium varium [3]): 7%
- MIC50 (Prevotella bivia [4]): 0.12 µg/mL (≈ 0.282 µM)
- MIC90 (Prevotella bivia [4]): > 128 µg/mL
- MIC50 (Finegoldia magna [5]): 0.12 µg/mL (≈ 0.282 µM)
- MIC90 (Finegoldia magna [5]): 4 µg/mL (≈ 9.41 µM)
- MIC50 (Fusobacterium varium [6]): 0.25 µg/mL (≈ 0.588 µM)
- MIC90 (Fusobacterium varium [6]): 4 µg/mL (≈ 9.41 µM)
- Activity (Clostridium tertium [7]): 75%
- MIC50 (Prevotella buccae [8]): 0.12 µg/mL (≈ 0.282 µM)
- MIC90 (Prevotella buccae [8]): > 128 µg/mL
- MIC50 [9]: 0.12 µg/mL (≈ 0.282 µM)
- MIC90 [9]: 4 µg/mL (≈ 9.41 µM)
- Activity (Fusobacterium mortiferum [10]): 7%
- Activity (Fusobacterium mortiferum [11]): 85%
- Activity [12]: 75%
- Activity (Parvimonas micra [13]): 88%
- Activity (Bacteroides caccae [14]): 57%
- MIC50 [15]: 0.12 µg/mL (≈ 0.282 µM)
- MIC90 [15]: 4 µg/mL (≈ 9.41 µM)
- MIC50 (Prevotella intermedia [16]): 0.12 µg/mL (≈ 0.282 µM)
- MIC90 (Prevotella intermedia [16]): > 128 µg/mL
- Activity [17]: 14%
- Activity (Phocaeicola vulgatus [18]): 57%
- Activity (Prevotella bivia [19]): 69%
- Activity (Bacteroides fragilis [20]): 63%
- Activity (Finegoldia magna [21]): 88%
- Activity [22]: 88%
- Activity (Prevotella buccae [23]): 31%
- Activity [24]: 7%
- Activity (Clostridium septicum [25]): 14%
- MIC (Veillonella parvula): 0.06 µg/mL (≈ 0.141 µM)
- MIC50 (Phocaeicola vulgatus [26]): 2 µg/mL (≈ 4.71 µM)
- MIC90 (Phocaeicola vulgatus [26]): > 128 µg/mL
- Activity (Clostridium septicum [27]): 75%
- MIC50 [28]: 1 µg/mL (≈ 2.35 µM)
- MIC90 [28]: 8 µg/mL (≈ 18.8 µM)
- Activity [29]: 85%
- Activity (Prevotella intermedia [30]): 31%
- Activity [31]: 88%
- MIC50 (Clostridium septicum [32]): 1 µg/mL (≈ 2.35 µM)
- MIC90 (Clostridium septicum [32]): 8 µg/mL (≈ 18.8 µM)
- MIC50 (Bacteroides caccae [33]): 2 µg/mL (≈ 4.71 µM)
- MIC90 (Bacteroides caccae [33]): > 128 µg/mL
- MIC50 [34]: 0.25 µg/mL (≈ 0.588 µM)
- MIC90 [34]: 4 µg/mL (≈ 9.41 µM)
- Activity (Bacteroides fragilis [35]): 37%
- Activity (Bacteroides uniformis [36]): 57%
- MIC50 (Parvimonas micra [37]): 0.12 µg/mL (≈ 0.282 µM)
- MIC90 (Parvimonas micra [37]): 4 µg/mL (≈ 9.41 µM)
- Activity (Fusobacterium nucleatum [38]): 7%
- Activity (Prevotella intermedia [39]): 69%
- Activity (Finegoldia magna [40]): 9%
- Activity (Fusobacterium nucleatum [41]): 85%
- Activity [42]: 69%
- MIC50 [43]: 0.12 µg/mL (≈ 0.282 µM)
- MIC90 [43]: > 128 µg/mL
- Activity (Bacteroides caccae [44]): 39%
- Activity [45]: 9%
- Activity (Prevotella bivia [46]): 31%
- MIC50 (Clostridium perfringens): 1 µg/mL (≈ 2.35 µM)
- MIC90 (Clostridium perfringens): 8 µg/mL (≈ 18.8 µM)
- Activity [47]: 31%
- Activity [48]: 43%
- Activity (Parvimonas micra [49]): 9%
- Activity (Clostridium tertium [50]): 14%
- Activity (Phocaeicola vulgatus [51]): 39%
- MIC50 (Clostridium tertium [52]): 1 µg/mL (≈ 2.35 µM)
- MIC90 (Clostridium tertium [52]): 8 µg/mL (≈ 18.8 µM)
- MIC50 (Fusobacterium mortiferum [53]): 0.25 µg/mL (≈ 0.588 µM)
- MIC90 (Fusobacterium mortiferum [53]): 4 µg/mL (≈ 9.41 µM)
- MIC50 (Bacteroides fragilis [54]): 1 µg/mL (≈ 2.35 µM)
- MIC90 (Bacteroides fragilis [54]): > 128 µg/mL
- Activity (Bacteroides uniformis [55]): 39%
- MIC50 (Fusobacterium nucleatum [56]): 0.25 µg/mL (≈ 0.588 µM)
- MIC90 (Fusobacterium nucleatum [56]): 4 µg/mL (≈ 9.41 µM)
- Activity [57]: 9%
- Activity (Prevotella buccae [58]): 69%
- Activity (Fusobacterium varium [59]): 85%
